The source of these data is PMC4858680, “A platinum-based hybrid drug design approach to circumvent acquired resistance to molecular targeted tyrosine kinase inhibitors” (Scientific Reports, 2016).

One series deals with ABL1-nonphosphorylated (Homo sapiens, UniProt P00519). Nature of the series: biochemical. Conditions: read-out: Percent control.
Another series has as its target RET(M918T) (Homo sapiens, UniProt P07949, M918T). Put plainly: biochemical. The note with it: read-out: Percent control.
For series [1], the target named is T1, ABL1(Q252H)-phosphorylated (Homo sapiens, UniProt P00519, Q252H). Put plainly: biochemical. The note with it: read-out: Percent control.
The target of series [2] is ABL1(H396P)-phosphorylated (Homo sapiens, UniProt P00519, H396P). Nature of the series: biochemical. The note with it: read-out: Percent control.
Another series has as its target T2, ABCG2 (Homo sapiens, UniProt Q9UNQ0).
T2 construct: expressed in transfected cells; host or cells: MDCKII-ABCG2
Put plainly: Bidirectional drug transport assay. The format is in vitro ADME. Conditions: dog, pH 7.4, MDCKII–ABCG2, mean of three experiments.

For the next series, the target named is RET(V804TL) (Homo sapiens, UniProt P07949, V804L). Put plainly: biochemical. Conditions: read-out: Percent control.
RET(V804TL), sequence (P07949 29-1114 V804L): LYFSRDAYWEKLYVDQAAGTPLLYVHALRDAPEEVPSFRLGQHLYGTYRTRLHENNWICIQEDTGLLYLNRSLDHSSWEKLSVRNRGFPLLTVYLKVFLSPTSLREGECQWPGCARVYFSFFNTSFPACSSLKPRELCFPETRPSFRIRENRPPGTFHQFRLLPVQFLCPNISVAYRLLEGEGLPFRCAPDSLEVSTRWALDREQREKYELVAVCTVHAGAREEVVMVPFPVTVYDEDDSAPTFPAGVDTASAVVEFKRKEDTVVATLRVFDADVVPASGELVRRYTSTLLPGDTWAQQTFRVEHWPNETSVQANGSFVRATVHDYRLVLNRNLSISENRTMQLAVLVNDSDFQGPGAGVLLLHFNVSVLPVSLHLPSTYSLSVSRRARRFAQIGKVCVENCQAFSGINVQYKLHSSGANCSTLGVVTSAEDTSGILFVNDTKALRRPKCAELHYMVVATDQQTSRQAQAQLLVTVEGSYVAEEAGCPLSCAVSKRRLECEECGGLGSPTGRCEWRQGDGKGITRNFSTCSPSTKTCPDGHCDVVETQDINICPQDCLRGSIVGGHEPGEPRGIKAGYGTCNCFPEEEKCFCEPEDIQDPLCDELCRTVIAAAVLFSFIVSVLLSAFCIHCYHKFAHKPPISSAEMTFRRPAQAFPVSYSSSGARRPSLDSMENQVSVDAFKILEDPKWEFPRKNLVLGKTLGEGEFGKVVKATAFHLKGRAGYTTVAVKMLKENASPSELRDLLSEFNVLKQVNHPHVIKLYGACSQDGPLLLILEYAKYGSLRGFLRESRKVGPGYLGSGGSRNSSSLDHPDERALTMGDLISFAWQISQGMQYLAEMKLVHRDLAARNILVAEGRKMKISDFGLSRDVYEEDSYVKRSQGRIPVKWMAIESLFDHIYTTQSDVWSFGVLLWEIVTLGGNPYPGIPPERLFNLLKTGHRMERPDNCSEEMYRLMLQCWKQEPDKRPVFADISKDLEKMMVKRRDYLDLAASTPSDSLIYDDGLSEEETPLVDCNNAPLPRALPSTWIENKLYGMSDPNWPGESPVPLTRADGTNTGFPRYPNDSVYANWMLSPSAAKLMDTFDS
The target in series [3] is ABL1(T315I)-phosphorylated (Homo sapiens, UniProt P00519, T315I). Nature of the series: biochemical. Conditions: read-out: Percent control.
A further series has as its target EGFR (Homo sapiens, UniProt P00533). The note with it: 10 μM.
Another series addresses T3, ZAP70 (Homo sapiens, UniProt P43403).
T3 sequence (P43403 1-619): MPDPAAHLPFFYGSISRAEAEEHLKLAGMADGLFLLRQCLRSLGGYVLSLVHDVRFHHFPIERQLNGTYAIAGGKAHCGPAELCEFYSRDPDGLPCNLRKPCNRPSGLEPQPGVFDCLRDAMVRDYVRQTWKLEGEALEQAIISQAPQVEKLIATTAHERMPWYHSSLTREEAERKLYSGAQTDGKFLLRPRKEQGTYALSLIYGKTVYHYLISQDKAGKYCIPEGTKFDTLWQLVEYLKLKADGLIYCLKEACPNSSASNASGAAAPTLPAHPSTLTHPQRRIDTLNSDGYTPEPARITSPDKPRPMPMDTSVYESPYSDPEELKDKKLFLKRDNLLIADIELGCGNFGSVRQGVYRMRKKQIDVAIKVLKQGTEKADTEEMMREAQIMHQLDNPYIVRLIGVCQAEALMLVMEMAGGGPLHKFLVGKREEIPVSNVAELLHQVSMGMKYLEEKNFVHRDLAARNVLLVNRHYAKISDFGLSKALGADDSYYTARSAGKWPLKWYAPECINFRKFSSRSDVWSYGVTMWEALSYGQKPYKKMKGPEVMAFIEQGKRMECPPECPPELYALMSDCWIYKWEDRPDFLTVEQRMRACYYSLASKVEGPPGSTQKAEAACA
Put plainly: biochemical. Conditions: read-out: Percent control.

A further series concerns the target SRC (Homo sapiens, UniProt P12931). Put plainly: biochemical. Conditions: read-out: Percent control.
Another series deals with ABL2 (Homo sapiens, UniProt P42684). Nature of the series: biochemical. Conditions: read-out: Percent control.
In the next series the target is T4, DDR2 (Homo sapiens, UniProt Q16832).
T4 sequence (Q16832 22-855): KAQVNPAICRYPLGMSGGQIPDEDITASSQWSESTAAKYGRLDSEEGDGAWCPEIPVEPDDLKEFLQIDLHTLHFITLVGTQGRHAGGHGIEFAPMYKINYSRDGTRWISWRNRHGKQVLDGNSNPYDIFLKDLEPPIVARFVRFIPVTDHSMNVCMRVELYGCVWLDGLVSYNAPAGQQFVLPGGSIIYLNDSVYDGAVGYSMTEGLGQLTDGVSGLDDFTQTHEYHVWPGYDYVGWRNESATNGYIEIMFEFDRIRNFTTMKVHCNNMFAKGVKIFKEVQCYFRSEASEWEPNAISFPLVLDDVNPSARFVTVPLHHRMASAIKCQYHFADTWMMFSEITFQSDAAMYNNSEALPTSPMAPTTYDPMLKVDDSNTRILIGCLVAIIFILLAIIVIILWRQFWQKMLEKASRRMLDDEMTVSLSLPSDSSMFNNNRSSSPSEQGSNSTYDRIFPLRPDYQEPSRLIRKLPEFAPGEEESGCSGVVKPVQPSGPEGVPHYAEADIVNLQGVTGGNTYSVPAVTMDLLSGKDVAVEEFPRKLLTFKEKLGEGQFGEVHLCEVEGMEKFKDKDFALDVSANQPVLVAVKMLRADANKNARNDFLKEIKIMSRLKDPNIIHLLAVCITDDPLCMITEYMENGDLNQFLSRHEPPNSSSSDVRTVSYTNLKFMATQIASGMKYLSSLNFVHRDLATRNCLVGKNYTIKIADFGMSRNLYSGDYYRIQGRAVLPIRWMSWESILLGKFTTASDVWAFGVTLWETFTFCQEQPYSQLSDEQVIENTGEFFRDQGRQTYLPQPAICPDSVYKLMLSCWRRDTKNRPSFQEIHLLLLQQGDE
Nature of the series: biochemical. Conditions: read-out: Percent control.

In series [4] the target is ABL1(H396P)-nonphosphorylated (Homo sapiens, UniProt P00519, H396P). The note with it: 10 μM.
In series [5] the target is T1, ABL1(Q252H)-phosphorylated. Conditions: 10 μM.
The next series has as its target T5, ABCG2 (MDCKII–ABCG2) (Homo sapiens, UniProt Q9UNQ0).
T5 construct: expressed in transfected cells; host or cells: MDCKII-ABCG2
Nature of the series: Bidirectional drug transport assay. The class given is in vitro ADME. The note with it: 10 μM, mean of three experiments.

Another series deals with ABL1-phosphorylated (Homo sapiens, UniProt P00519). The note with it: 10 μM.
For the next series, the target named is P-gp (MDCKII–P-gp) (Homo sapiens, UniProt P08183). Conditions: 10 μM, mean of three experiments.
P-gp (MDCKII–P-gp), sequence (P08183 whole entry): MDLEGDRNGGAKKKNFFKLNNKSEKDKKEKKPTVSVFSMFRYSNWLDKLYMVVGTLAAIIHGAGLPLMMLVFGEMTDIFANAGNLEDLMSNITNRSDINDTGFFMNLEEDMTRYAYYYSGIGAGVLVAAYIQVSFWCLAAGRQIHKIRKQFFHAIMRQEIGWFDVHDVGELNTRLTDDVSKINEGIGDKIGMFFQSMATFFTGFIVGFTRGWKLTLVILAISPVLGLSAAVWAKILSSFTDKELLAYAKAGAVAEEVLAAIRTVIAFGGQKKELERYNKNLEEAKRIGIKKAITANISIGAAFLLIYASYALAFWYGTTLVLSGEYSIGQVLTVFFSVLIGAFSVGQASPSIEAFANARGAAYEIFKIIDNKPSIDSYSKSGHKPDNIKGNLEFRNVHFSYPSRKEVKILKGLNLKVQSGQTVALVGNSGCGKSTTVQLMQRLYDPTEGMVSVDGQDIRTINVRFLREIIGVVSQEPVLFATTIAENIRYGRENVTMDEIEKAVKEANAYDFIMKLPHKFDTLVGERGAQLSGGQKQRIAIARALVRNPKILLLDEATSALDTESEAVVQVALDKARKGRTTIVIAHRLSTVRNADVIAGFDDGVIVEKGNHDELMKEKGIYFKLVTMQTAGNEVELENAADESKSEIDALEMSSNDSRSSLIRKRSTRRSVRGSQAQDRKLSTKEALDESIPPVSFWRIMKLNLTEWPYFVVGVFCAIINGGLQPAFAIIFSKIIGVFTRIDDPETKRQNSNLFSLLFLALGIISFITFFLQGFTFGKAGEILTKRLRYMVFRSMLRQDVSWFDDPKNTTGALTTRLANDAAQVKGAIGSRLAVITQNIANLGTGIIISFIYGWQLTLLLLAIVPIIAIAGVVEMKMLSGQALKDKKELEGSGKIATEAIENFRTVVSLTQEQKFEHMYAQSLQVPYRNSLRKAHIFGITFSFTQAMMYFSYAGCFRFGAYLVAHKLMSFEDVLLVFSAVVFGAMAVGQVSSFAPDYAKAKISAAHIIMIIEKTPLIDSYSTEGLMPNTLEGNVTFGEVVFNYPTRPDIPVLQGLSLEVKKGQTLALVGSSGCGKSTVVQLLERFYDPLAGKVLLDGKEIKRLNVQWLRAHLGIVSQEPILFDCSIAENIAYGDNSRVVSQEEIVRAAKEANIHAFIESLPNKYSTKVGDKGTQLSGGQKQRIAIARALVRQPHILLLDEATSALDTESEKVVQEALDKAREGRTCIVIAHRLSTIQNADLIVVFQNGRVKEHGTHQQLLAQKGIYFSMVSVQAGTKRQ
The target in series [6] is ABL1(E317I)-nonphosphorylated (Homo sapiens, UniProt P00519, F317I). The note with it: 10 μM.
For series [7], the target named is ABL1(F317I)-phosphorylated (Homo sapiens, UniProt P00519, F317I). The note with it: 10 μM.
In the next series the target is CSF1R (Homo sapiens, UniProt P07333). The note with it: 10 μM.

T2 sequence (Q9UNQ0 whole entry, species assumed): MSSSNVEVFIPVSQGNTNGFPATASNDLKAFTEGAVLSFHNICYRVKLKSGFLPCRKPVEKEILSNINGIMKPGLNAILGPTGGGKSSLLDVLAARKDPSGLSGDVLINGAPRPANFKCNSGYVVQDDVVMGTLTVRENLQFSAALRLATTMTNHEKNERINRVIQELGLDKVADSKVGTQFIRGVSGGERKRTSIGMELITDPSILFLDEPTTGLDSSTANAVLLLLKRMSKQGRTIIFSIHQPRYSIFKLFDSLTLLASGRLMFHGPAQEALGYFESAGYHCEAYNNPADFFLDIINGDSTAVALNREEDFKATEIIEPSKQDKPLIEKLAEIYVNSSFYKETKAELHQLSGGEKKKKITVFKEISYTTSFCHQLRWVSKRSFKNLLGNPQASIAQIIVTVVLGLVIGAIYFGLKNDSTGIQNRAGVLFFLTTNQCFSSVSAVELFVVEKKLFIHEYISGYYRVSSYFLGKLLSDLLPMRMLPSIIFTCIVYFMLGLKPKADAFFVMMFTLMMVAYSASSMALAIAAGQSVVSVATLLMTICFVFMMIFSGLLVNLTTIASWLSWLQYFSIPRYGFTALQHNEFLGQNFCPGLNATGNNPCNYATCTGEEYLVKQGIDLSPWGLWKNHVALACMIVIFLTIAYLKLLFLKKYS
T5 sequence (Q9UNQ0 whole entry, species assumed): as above
EGFR, sequence (P00533 25-1210): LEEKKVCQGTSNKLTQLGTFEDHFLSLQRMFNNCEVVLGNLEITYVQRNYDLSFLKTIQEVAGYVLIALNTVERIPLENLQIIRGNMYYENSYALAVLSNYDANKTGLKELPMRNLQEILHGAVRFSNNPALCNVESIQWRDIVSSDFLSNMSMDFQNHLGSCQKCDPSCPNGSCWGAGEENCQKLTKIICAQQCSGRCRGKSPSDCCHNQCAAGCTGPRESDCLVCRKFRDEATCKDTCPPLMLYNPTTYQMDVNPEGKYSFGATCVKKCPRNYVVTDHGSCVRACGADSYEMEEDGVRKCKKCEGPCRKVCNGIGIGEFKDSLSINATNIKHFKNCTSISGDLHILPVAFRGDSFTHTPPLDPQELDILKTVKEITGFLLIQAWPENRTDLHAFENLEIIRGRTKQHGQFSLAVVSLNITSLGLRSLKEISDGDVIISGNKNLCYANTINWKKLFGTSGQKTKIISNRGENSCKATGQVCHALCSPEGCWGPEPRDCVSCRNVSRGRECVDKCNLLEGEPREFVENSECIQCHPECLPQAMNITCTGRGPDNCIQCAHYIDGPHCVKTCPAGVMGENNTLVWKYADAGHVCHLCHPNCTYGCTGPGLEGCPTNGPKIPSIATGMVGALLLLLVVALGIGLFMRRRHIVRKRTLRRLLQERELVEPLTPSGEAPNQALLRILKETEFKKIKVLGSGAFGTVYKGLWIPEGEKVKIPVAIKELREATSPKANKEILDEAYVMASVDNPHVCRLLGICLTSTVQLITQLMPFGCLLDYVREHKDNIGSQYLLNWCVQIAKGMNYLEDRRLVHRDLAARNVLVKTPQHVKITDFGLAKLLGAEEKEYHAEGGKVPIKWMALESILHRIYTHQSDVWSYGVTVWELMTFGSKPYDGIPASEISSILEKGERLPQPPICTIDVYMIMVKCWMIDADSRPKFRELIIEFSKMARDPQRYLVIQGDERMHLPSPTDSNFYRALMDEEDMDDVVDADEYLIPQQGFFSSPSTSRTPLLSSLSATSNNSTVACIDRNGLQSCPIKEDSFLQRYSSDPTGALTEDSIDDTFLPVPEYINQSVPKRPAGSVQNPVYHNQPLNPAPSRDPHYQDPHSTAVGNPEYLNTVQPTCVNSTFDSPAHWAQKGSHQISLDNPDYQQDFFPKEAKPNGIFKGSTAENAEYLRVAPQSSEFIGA
RET(M918T), sequence (P07949 29-1114 M918T): as the sequence (P07949 29-1114 V804L) above, with L776V, M890T counted along it
SRC, sequence (P12931 whole entry): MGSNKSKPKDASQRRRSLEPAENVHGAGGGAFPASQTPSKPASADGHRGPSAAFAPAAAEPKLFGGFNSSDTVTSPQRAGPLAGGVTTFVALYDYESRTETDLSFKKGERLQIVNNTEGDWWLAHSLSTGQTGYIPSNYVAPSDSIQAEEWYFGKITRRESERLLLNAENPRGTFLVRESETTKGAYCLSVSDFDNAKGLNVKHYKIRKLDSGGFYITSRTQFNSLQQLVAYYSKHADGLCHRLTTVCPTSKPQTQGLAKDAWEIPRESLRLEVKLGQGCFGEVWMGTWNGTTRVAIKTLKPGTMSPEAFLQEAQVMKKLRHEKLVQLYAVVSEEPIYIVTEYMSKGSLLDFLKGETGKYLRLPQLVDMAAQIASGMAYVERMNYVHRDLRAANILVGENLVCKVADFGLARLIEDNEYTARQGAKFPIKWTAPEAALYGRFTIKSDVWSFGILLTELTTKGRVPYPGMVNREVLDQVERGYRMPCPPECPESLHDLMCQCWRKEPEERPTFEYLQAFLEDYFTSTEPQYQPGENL

Regarding `C#Cc1cccc(Nc2ncnc3cc(OCCOC)c(OCCOC)cc23)c1` [Erlotinib], the remaining activity at 10 µM stood at 3.2% at ABL1-nonphosphorylated; 3.2% at RET(M918T); 0.6% in series [1]; 0.6% in [2]; 100% on RET(V804TL); 0.6% in series [3]. For the same molecule, the Papp A→B at 120 min, 10 μM at ABCG2 (read-out: A to B transport (apparent permeability)) came to 14.9 ×10⁻⁶ cm/s. The Papp B→A at 120 min, 10 μM on ABCG2 (read-out: B to A transport (apparent permeability)) was 45.4 ×10⁻⁶ cm/s.
The molecule `Cc1ccc(NC(=O)c2ccc(CN3CCN(C)CC3)cc2)cc1Nc1nccc(-c2cccnc2)[n+]1[Pt-2]1([Cl])[NH2+]C2CCCCC2[NH2+]1` (centres unmarked) [1b, oxaliplatin-imatinib] came in with a Percent control at EGFR of 89%.
`COc1cc2c(Nc3ccc(Br)cc3F)ncnc2cc1OCC1CCN(C)CC1` [Vandetanib, reference compound]: the remaining activity at 10 µM at ZAP70 was determined as 100%; on SRC it was 0.7%; on ABL2 it was 0.7%; on DDR2 it was 3.1%.
Turning to `C#Cc1cccc(Nc2c3cc(OCCOC)c(OCCOC)cc3nc[n+]2[Pt@SP2-2]([NH3+])([NH3+])[Cl])c1` [2a, cisplatin-erlotinib], the Percent control in [4] came to 0.9%; in series [5], 12%; on ABL1-phosphorylated it was 16%; in series [6], 83%; in series [7] it was 49%; on CSF1R, 91%. The entries for the “A to B transport (apparent permeability)” value at ABCG2 (MDCKII–ABCG2) and at P-gp (MDCKII–P-gp) were 7.21 × 10^−6 and 3.32 × 10^−6, respectively. Moreover, the “B to A transport (apparent permeability)” value on ABCG2 (MDCKII–ABCG2) is recorded as 7.88 × 10^−6; on P-gp (MDCKII–P-gp), 2.82 × 10^−6.
